Source: patent US20240352466A1, “APTAMER-siRNA FUSIONS” (APTERNA LIMITED, priority 2020, published 2024)
In the oligonucleotide strings, read from the 5' end, every base follows the letter of its sugar. An asterisk marks phosphorothioate; unmarked linkages are phosphodiester. Other units and linkages are bracketed, terminal groups are in braces. A string of capitals states the bases alone. m = 2'-O-methyl; f = 2'-fluoro

Experiments:
PANC-Luc cells = assay: TfR-siCEBPb in mouse model of pancreatic cancer with liver metastasis; assay type: in vivo; conditions: NOD/SCID mice, 15 mg/kg subcutaneous; for increase in photon count (BTL) relative to PBS and TfR-Fluc controls: after 3 weeks
Procedure: The anti-tumour effects of TfR-siCEBPb was investigated in a mouse model of pancreatic cancer with liver metastasis
Treatment group 1 was administered PBS as a negative control. Treatment group 2 was a TfR-siFLUC construct (SEQ ID NO:32, conjugated to SEQ ID NO:1), as described previously. Treatment groups 3 and 4 was administered ESC modified siCEBPb sequences from Example 4 linked to TfR aptamer SEQ ID NO: 40, an ESC-modified version of the TfR aptamer laid out in SEQ ID NO:1, via a disulphide bridge as described previously. Group 3 is treated with a ribonucleic acid comprising the human-mouse cross reactive siCEBPb described previously, whilst Group 4 is treated with a ribonucleic acid comprising a mouse siCEBPb. These ribonucleic acids correspond to TFR-SS-siCEBPb seq 1 (SEQ ID NO: 41+50) and TfR-SS-siCEBPb seq 2 (SEQ ID NO:34 and 47) respectively.
Each group consisted of five 6-week-old NOD/SCID mice. Three additional mice were included for baseline.
Fourteen days prior to the first dose, mice underwent tumour challenge by performing intrahepatic tumor implantation by injecting […] of a monocellular suspension (in PBS) containing 1×10^6 PANC-Luc cells into a region in the middle lobe of the livers of 6-week-old female NOD/SCID. The day prior to the first dose, mice underwent bioluminescence tumour imaging (BTL) and were weighed to set the week 0 baseline.
Doses were administered as a 100 μL injection on injection days as outlined in Table 2.
At day 21 (week 3), BTL and body weight were recorded, and blood samples were taken, along with pathological sections of pancreas, tumour and liver for study and cryopreservation. The schema of the experiments is shown as FIG. 6.

[1] = tested on: pancreatic cancer with liver metastasis; assay: Combination of TfR-siCEBPb with PD-1 inhibitor pembrolizumab in mouse model of pancreatic cancer with liver metastasis; assay type: in vivo
Text: The combinatorial anti-tumour effects of TfR-siCEBPb and PD-1 inhibitor pembrolizumab were investigated in the mouse model of pancreatic cancer with liver metastasis. The TfR-siCEBPb (ESC) and TfR-siFLUC sequences from Example 5 were used in this study.
The treatment groups were as follows:
Fourteen days prior to the first dose, mice underwent tumour challenge. The day prior to, and 21 days following the first dose, mice underwent bioluminescence tumour imaging (BTL).

p21 = assay: qRT-PCR of p21 gene expression in PANC-1, Sup-B15 and CCFR-CEM cell lines; assay type: cell-based, human; conditions: PANC-1, Sup-B15 and CCFR-CEM cells; 400 nM and 800 nM; normalized to GAPDH
Procedure: (§1) In order to evaluate the effects of TfR aptamer-small RNAs, experiments were performed in PANC-1, Sup-B15 and CCFR-CEM cell lines.
(§2) The TfR-SS-siCEBPB construct as described in Example 1 was selected for these experiments. A TfR aptamer (SEQ ID NO:1) fused via a disulphide bridge (SS) to siRNA for MALATI (TfR-MALATI siR) was generated as a negative control for siCEBPB activity. The siCEBPB (SEQ ID NO:9) without a TfR aptamer delivery system was also included for comparative purposes.
(§3) Cells were seeded in plates on Day 0, and the first transfection of TfR aptamer-small RNAs was performed on day 1. The second transfection of TfR aptamer-small RNAs was performed on day 2. Sampling was performed on day 3. Total RNA extraction was performed on samples prior to qRT-PCR quantification of GAPDH, CEBPA, CEBPB, and p21 gene expression. Expression was normalized to GAPDH.
(§4) Transfections were performed at 400 nM and 800 nM concentrations.

CEBPB = assay: qRT-PCR of CEBPB gene expression in PANC-1, Sup-B15 and CCFR-CEM cell lines; assay type: cell-based, human; conditions: PANC-1, Sup-B15 and CCFR-CEM cells; 400 nM and 800 nM; normalized to GAPDH
Procedure: as §1, §2, §3, §4

CEBPA = assay: qRT-PCR of CEBPA gene expression in PANC-1, Sup-B15 and CCFR-CEM cell lines; assay type: cell-based, human; conditions: PANC-1, Sup-B15 and CCFR-CEM cells; 400 nM and 800 nM; normalized to GAPDH
Procedure: as §1, §2, §3, §4

CEBPB mRNA [2] = assay: CEBPB mRNA expression in primary mouse hepatocytes exposed to TfR-SS-(h/m) siCEBPb; assay type: cell-based
Text: The human siCEBPbeta sequence was aligned with chromosome 3 of the mouse genome (Accession NC_0344592.1), in which the CEBPbeta gene is located, using Basic Local Alignment Search Tool (BLAST, https://blast.ncbi.nlm.nih.gov). […] To make a human/mouse cross-reactive siRNA, this sequence was substituted in the sense (G to A) and antisense (C to U) strands. The sense and antisense strands of this human/mouse crossreactive (h/m) siCEBPb correspond to SEQ ID NOs: 15 and 16 respectively. TfR-SS-MALATI siRNA was included as an siRNA effector control.
Primary mouse hepatocytes were exposed to TfR-SS-MALATI (100 nM, 500 nM and 1000 nM) or TfR-SS-(h/m) siCEBPb (100 nM, 500 nM and 1000 nM), or were untreated, and the effects on CEBPB mRNA expression determined as outlined previously.

CEBPB mRNA [3] = assay: CEBPB mRNA transcripts (qPCR) in BNL-ME mouse cells transfected with naked and ESC siRNAs; assay type: cell-based; conditions: 1, 5 and 10 nM + L3K, lysed after 48 hrs, vs untreated cells
Procedure: The activity of naked and ESC siRNAs was investigated in mouse BNL hepatocyte cells.
BNL-ME mouse cells were seeded at a density of approximately 20,000 cells per well. The following siRNAs were tested: (m) siCEBPB (Ambion) (SEQ ID NOs: 11, 51 and 12, 52), (m) siCEBPB (Ambs63860) (ESC) (SEQ ID NOs: 17, 18), (h/m) siCEBPB (SEQ ID NOs: 7 and 8), (h/m) siCEBPB ESC (SEQ ID NOs: 15 and 16), (h) siCEBPB (AP6143-6145) (SEQ ID NOs: 9 and 10), (r) siCEBPB (Hao) (SEQ ID NOs: 13 and 14). Test siRNAs were transfected at concentrations of 1, 5 and 10 nM in the presence of Lipofectamine™ 3000 (L3K). Control treatments (untreated, mock L3K treatment, and siFLUC at 1, 5 and 10 nM) were also performed. The media was changed 24 hours following transfection, and cells lysed after 48 hrs. CEBPB mRNA transcript were quantified through qPCR.

CEBPA mRNA = CEBPA mRNA levels in Panc1 cells after TfR aptamer-saCEBPA constructs, active (L2K) and passive delivery; assay type: cell-based, human; conditions: for CEBPA mRNA levels: passive delivery
Text: In order to test whether cleavable […] bridge (SS) linkers improved TfR aptamer delivery of small RNA, a series of constructs were made by fusing the 22nt TfR binding aptamer (SEQ ID NO:1) to: i. a CEBPalpha small activating RNA (saCEBPa, SEQ ID NO:24) ii. CEBPbeta small interfering RNA (siCEBPb, SEQ ID NO:9), or iii. siTTR (SEQ ID NO:28).
For the saCEBPa and […] constructs, variants were produced where the aptamer and small RNAs were linked through a disulphide linker (SS).
In order to compare the effects of the SS linker on active and passive delivery, constructs were applied to cells in the presence and absence of transfection agent Lipofectamine™ 2000 (L2K, ThermoFisher Scientific).
The effects of the constructs on CEBPA and B mRNA were measured in Panc1 (human pancreatic cancer cell line) cells. Cells were seeded at a density of approximately 50,000 per well in a 24 well plate, in antibiotic free media with no trypsin (Accutase®). Constructs were applied to cells at 10, 500 or 1000 nM concentration, and mRNA levels measured after incubation for 72 hrs.

In the case of “TfR-SS-(m) siCEBPb ESC seq 1: ESC modified mouse siCEBPb linked to TfR aptamer SEQ ID NO:40 via a disulphide bridge (SEQ ID NO: 41+50) (chain 1 UUUAUUCACAUUUUUGAAUUGA; chain 2 GCACCCUGCGGAACUUGUUUU; ESC modified; disulphide linker; modified_base 1 OTHER; 2-Prime-fluoro uracil; modified_base 2 OTHER; modified_base 3 OTHER; modified_base 5 OTHER; modified_base 6 OTHER; modified_base 7 OTHER; 2-Prime-fluoro cytosine; modified_base 9 OTHER; modified_base 11 OTHER; modified_base 12 OTHER; 2-P; 2-Prime-fluoro guanine; 2-Prime-O-methyl cytosine; 2-Prime-fluoro adenine; modified_base 4 OTHER; mo)”, the “increase in photon count (BTL) relative to PBS and TfR-Fluc controls” value (PANC-Luc cells) is reported as “lower”, the “tumour burden relative to controls” value (PANC-Luc cells; week 3) is reported as “ability to reduce tumour burden” and the tumour volume (PANC-Luc cells; week 3) is reported as “Slightly lower”. The tumour weight (PANC-Luc cells; week 3) was “Slightly lower”.

In the case of “TfR-SS-(h/m) siCEBPb ESC seq 2: ESC modified human-mouse cross reactive siCEBPb linked to TfR aptamer SEQ ID NO:40 via a disulphide bridge (SEQ ID NO: 34 and 47) (chain 1 UUUAUUCACAUUUUUGAAUUGA; chain 2 CUGAGUAAUCGCUUAAAGAUU; chain 1: 2'-fluoro at CU, RNA at AG, backbone not given here; chain 2: chemistry not given here; further chemistry not fully specified)”, the “body weight at 3 weeks relative to week 0” value (PANC-Luc cells) is reported as “body weight gain”, the “increase in photon count (BTL) relative to PBS and TfR-Fluc controls” value (PANC-Luc cells) is reported as “lower” and the “effects on IVIS, body weight, tumour volume and weight, seq 2 compared with seq-1” value (PANC-Luc cells; week 3) is reported as “more pronounced”. The “tumour burden relative to controls” value (PANC-Luc cells; week 3) was “ability to reduce tumour burden”, the tumour volume (PANC-Luc cells; week 3) was “statistically significant lower” and the tumour weight (PANC-Luc cells; week 3) was “statistically significant lower”. The “effect on animal weight” value ([1]; in combination with pembrolizumab) was “no effect on animal weight”.

In the case of “pembrolizumab: PD-1 inhibitor pembrolizumab [reference compound]”, the “tumour volume compared to PBS-treated controls” value ([1]; week 3, pembrolizumab 0.25 mg/kg, TfR constructs 10 mg/kg) is reported as “smaller tumour volumes”.

“siCEBPbeta: human CEBPB siRNA (SEQ ID NOs: 9 and 10) without a TfR aptamer delivery system (chain 1 CUGAGUAAUCGCUUAAAGAUU; chain 2 UCUUUAAGCGAUUACUCAGUU; listed as RNA, chemistry not given here)” was tested, and the p21 gene expression (p21) was “no statistically significant change”, the CEBPbeta gene expression (CEBPB) was “no statistically significant change” and the C/EBPA gene expression (CEBPA) was “no statistically significant change”.

In the case of “TfR-SS-(h/m) siCEBPb: TfR aptamer linked via SS to human/mouse crossreactive siCEBPb (SEQ ID NOs: 15 and 16) (chain 1 fCmUfGmAfGmUfAfAfUmCfAmCfUmUfAmAfAmGfA*mU*mU; chain 2 mU*fCmU*fUmUfAmAfGmUfGmAmUmUfAmCfUmCfAmG*mU*mU; TfR aptamer attached via disulphide linker, attachment site not given here)”, the “relative CEBPB mRNA expression” value (CEBPB mRNA [2]; 100 nM) is reported as “reduced slightly”, the “relative CEBPB mRNA expression” value (CEBPB mRNA [2]; 500 nM) is reported as “strongest effect” and the “relative CEBPB mRNA expression” value (CEBPB mRNA [2]; 1000 nM) is reported as “more pronounced”.

For “(h/m) siCEBPB: human/mouse cross reactive naked CEBPB siRNA (AP6143), SEQ ID NOs: 7 and 8 (chain 1 CUGAGUAAUCACUUAAAGAUU; chain 2 UCUUUAAGUGAUUACUCAGUU; unmodified RNA)”, the “CEBPB mRNA expression” value (CEBPB mRNA [3]) was “below half that of the untreated cells”.

B1: TfR-SS-saCEBPA: TfR aptamer SEQ ID NO:1 linked through a disulphide linker (SS) to saCEBPa (SEQ ID NO:38+49, 39) (nucleic acid)
chain 1: UUUAUUCACAUUUUUGAAUUGA
chain 2: UUUAUUCACAUUUUUGAAUUGA
chain 3: GACCAGUGACAAUGACCGCUU
chain 4: GCGGUCAUUGUCACUGGUCUU
modifications: TfR aptamer attached via disulphide linker, further chemistry not given here
In the case of B1, the “relative expression of CEBPA mRNA” value (CEBPA mRNA; 10 nM + L2K (active delivery), 72 hrs, vs untreated samples) is reported as “within 1 standard deviation of untreated samples”, the “CEBPA mRNA levels” value (CEBPA mRNA; 500 nM and 1000 nM, 72 hrs) is reported as “lower” and the “CEBPA mRNA levels” value (CEBPA mRNA; 1000 nM, vs control) is reported as “within one standard deviation of the control”.
